In PubChem BioAssay (NCI):
Values joined by “and” are separate entries in the source; they are usually repeats but may differ in a detail not shown here. Equal values may be shown once.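 The compound was tested at five concentrations on cells cultured in 96-well plates, with a 48-hour exposure period. Here, GI50 denotes the concentration required for 50% inhibition of growth. TGI is the concentration that stops growth completely.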 Active and inactive are the calls of the source. No stated cut-off is given here; in the data, active means GI50 below about 0.43 µM; inactive means the rest.

Key:
Test in all cases: DTP human tumour cell line panel, 48 h
DLD-1 colon = tested on: DLD-1 colon
DMS 114 small cell lung = tested on: DMS 114 small cell lung
DMS 273 small cell lung = tested on: DMS 273 small cell lung
HOP-18 NSCLC = tested on: HOP-18 NSCLC
KM20L2 colon = tested on: KM20L2 colon
XF 498 CNS = tested on: XF 498 CNS
BT-549 breast = tested on: BT-549 breast
MDA-N = tested on: MDA-N
NCI/ADR-RES ovarian = tested on: NCI/ADR-RES ovarian

| Structure (SMILES) | TGI (DLD-1 colon) [µM] | TGI (DMS 114 small cell lung) | TGI (DMS 273 small cell lung) | TGI (HOP-18 NSCLC) [µM] | TGI (KM20L2 colon) [µM] | TGI (XF 498 CNS) [µM] | TGI (BT-549 breast) | TGI (MDA-N) | TGI (NCI/ADR-RES ovarian) [µM] | also measured |
| --- | --- | --- | --- | --- | --- | --- | --- | --- | --- | --- |
| O=C1c2ccoc2C(=O)c2oc(=O)ccc21 | 36.4 | 4.42 µM | 31.6 µM | 36 | > 65.4 | 40 |  |  |  |  |
| COc1cccc(/C=C2/S/C(=N/Nc3nc(C)c(C(C)=O)s3)NC2=O)c1O |  |  |  |  |  |  | 97 µM | > 100 µM | > 100 |  |
| COc1cccc(N2C(=O)C3CC(CC(C)(C)C)c4c([nH]c5ccccc45)C3C2=O)c1 (stereo unspecified) |  |  |  |  |  |  | > 10 µM | > 10 µM | > 10 |  |
| COc1ccc2nc(-c3ccc(O)cc3)ccc2c1 | > 100 | > 100 µM |  | > 100 | > 100 |  |  |  |  |  |
| CC(C)(C)c1cc(C(OCCl)(C(F)(F)F)C(F)(F)F)c2c(c1)C(C(F)(F)F)(C(F)(F)F)OC21c2ccccc2C(=O)c2ccccc21 | > 100 | > 100 µM | > 100 µM | > 100 | > 100 | > 100 |  |  |  |  |
| CCC1=C(c2ccc(OC)cc2)CC[C@]2(CCNC2=O)[C@@H]1C |  |  |  |  |  |  |  | 58.3 µM | > 92.2 |  |
| Cc1cc2c3c(c1)CCCN3CCC2 |  |  |  |  |  |  |  | > 10 µM | > 10 |  |
| C1=C(c2ccccc2)C(OC2Oc3ccccc3C=C2c2ccccc2)Oc2ccccc21 (stereo unspecified) | > 100 | > 100 µM | > 100 µM | > 100 | > 100 | > 100 |  |  |  |  |
| O=C(O)C1=C(C(=O)O)Oc2ccccc2O1 | > 100 | > 100 µM | > 100 µM | > 100 | > 100 | > 100 |  |  |  |  |
| COc1cccc2c1[C@H]1OC(=O)NC1CCCCC2 (stereo partly specified) | > 100 | > 100 µM | > 100 µM | > 100 | > 100 |  |  |  |  |  |
| O=C(/C=C/c1cccs1)c1ccc([N+](=O)[O-])cc1 |  |  |  |  |  |  |  | > 100 µM | > 100 |  |
| Nc1ncnc2c1ncn2CCOC(c1ccccc1)P(=O)(O)O (stereo unspecified) | > 100 |  | > 100 µM |  | > 100 |  |  |  |  |  |
| O=C(CCC(=O)C1Cc2ccccc2C1=O)Nc1cccc(C(F)(F)F)c1 (stereo unspecified) | > 100 |  | > 100 µM | > 100 | > 100 |  |  |  |  |  |
| COc1cc2c(cc1OC)C(SC)C(=O)N(Cc1cccc(OC)c1OC)CC2 (stereo unspecified) | > 100 | 5.49 µM | 12.2 µM | > 100 | > 100 |  | 33.2 µM | 1.53 µM | 88.8 |  |
| O=c1[nH]c(=O)n(C2CC(O)C(O)C(CO)O2)cc1F (stereo unspecified) | > 100 | > 100 µM |  | > 100 | > 100 | > 100 |  |  |  |  |
| CC(=O)c1c(O)c2c([nH]c1=O)CCCC2 | > 100 | > 100 µM | 70.5 µM | > 100 | > 100 | > 100 |  |  |  |  |
| O=S(=O)(Cc1ccccc1)SCc1ccccc1 | 21.9 | 32 µM | 98.2 µM | 84.3 | 40.1 |  |  |  |  |  |
| Nc1nc(-c2ccccc2)cc(-c2cc(Cl)ccc2O)n1 | > 100 | > 100 µM | > 100 µM | > 100 | > 100 |  |  |  |  |  |
| CCOC(=O)COc1cccc2occc(=O)c12 | > 100 | > 100 µM | > 100 µM |  | > 100 | > 100 |  |  |  |  |
| Nc1c(-c2nc3ccccc3s2)[n+]([O-])c2ccccc2[n+]1[O-] | > 100 | > 100 µM |  | 86.2 | > 100 |  |  |  |  |  |
| O=C(O)Cn1ccc(=O)c2c([N+](=O)[O-])cccc21 |  |  |  |  |  |  | > 100 µM | > 100 µM | > 100 |  |
| O=C(/C=C/c1ccc(Cl)cc1)c1ccc(Cl)s1 |  |  |  |  |  |  | 80.7 µM | 90.2 µM | > 100 |  |
| CC1CCC2c3c([nH]c4ccccc34)C3C(=O)N(c4ccccc4)C(=O)C3C2C1 (stereo unspecified) | > 250 |  |  | 69.9 | > 250 | 7.55 |  |  |  |  |
| CCCCOCCOCCOC1=C(Cl)C(=O)c2c(O)ccc(O)c2C1=O |  |  |  |  |  |  | 2.72 µM | 2.03 µM | 7.49 |  |
| C1CCN2CC3CONC3C2C1 (stereo unspecified) | > 100 | > 100 µM | > 100 µM |  | > 100 | > 100 |  |  |  |  |

| Structure (SMILES) | TGI (DLD-1 colon) [µM] | TGI (DMS 114 small cell lung) | TGI (DMS 273 small cell lung) | TGI (HOP-18 NSCLC) [µM] | TGI (KM20L2 colon) [µM] | TGI (XF 498 CNS) [µM] | TGI (BT-549 breast) | TGI (MDA-N) | TGI (NCI/ADR-RES ovarian) [µM] | also measured |
| --- | --- | --- | --- | --- | --- | --- | --- | --- | --- | --- |
| NC(=O)C(=O)Cc1nc2ccccc2s1 |  | > 100 µM |  | > 100 | > 100 | > 100 |  |  |  |  |
| CON(C)C(=O)C(C)NC(=O)OC(C)(C)C (stereo unspecified) |  |  |  |  |  |  | > 100 µM | > 100 µM | > 100 |  |
| CC(=O)c1sc2c(c1O)c(=O)n(-c1ccccc1)c(=S)n2-c1ccccc1 |  |  |  |  |  |  | > 100 µM | > 100 µM |  |  |
| N=C(N)c1ccc(OCCCCCOc2ccc(C(=N)N)cc2)cc1 |  |  |  |  |  |  | 14.1 µM and 16 µM and 25.3 µM | 26.5 µM and 36 µM | > 100 | GI50 (BT-549 breast): 6.65 µM and 3.41 µM and 11.1 µM; GI50 (NCI/ADR-RES ovarian): 27.3 µM |
| COc1ccc2c3c(c(C(=O)O)oc13)C(CCC(=O)O)CC2 (stereo unspecified) | > 100 | > 100 µM | > 100 µM | > 100 | > 100 | > 100 |  |  |  |  |
| c1ccc2c(c1)[O][Sn][O]2 |  | > 150 µg/mL | > 150 µg/mL |  |  |  |  |  |  | GI50 (DMS 114 small cell lung): 8.87 µg/mL; GI50 (DMS 273 small cell lung): 10.4 µg/mL; outcome (HOP-18 NSCLC): inactive; outcome (KM20L2 colon): inactive |
| C/C(CC(=O)Nc1cccc(Cl)c1C)=N\N=C(N)N | > 100 | > 100 µM | > 100 µM | > 100 | > 100 | > 100 |  |  |  |  |
| Cc1csc(CCC(N)C(=O)O)n1 (stereo unspecified) | > 100 |  | > 100 µM | > 100 |  |  |  |  |  |  |
| CN(C)CCNC(=O)c1cccc2cc3ccc4ccccc4c3nc12 | 0.817 |  | 0.163 µM | 0.665 | 0.988 | 0.237 |  |  |  |  |
| Cc1cc2c(cc1C)[n+](=O)c(C(=O)/C=C/c1ccccc1[N+](=O)[O-])c(C)n2[O-] | > 100 | 49.1 µM | > 94.5 µM | > 93.6 | > 100 | 37.7 | > 100 µM | > 100 µM | > 100 |  |
| COC(=O)c1cc2ccccc2c2nc3ccccc3c(Cl)c12 | > 100 | > 100 µM | > 100 µM |  | 29 | > 100 |  |  |  |  |
| O[C@]12c3ccccc3C1CCCCC2N1CCOCC1 (stereo partly specified) |  | > 100 µM | > 100 µM | > 100 | > 100 | > 100 |  |  |  |  |
| O=C(Nc1ccc(Cl)c(C(F)(F)F)c1)C(=O)c1c(O)c2ccccc2oc1=O |  |  |  |  |  |  | > 100 µM | > 100 µM | > 100 |  |
| Cc1c(C)c2ccc(OC(C)C(=O)O)cc2oc1=O (stereo unspecified) | > 100 | > 100 µM |  | > 100 | > 100 | 99 |  |  |  |  |
| Cc1n(Cc2ccc3ccccc3n2)cc[n+]1Cc1ccc2ccccc2c1 |  |  |  |  |  |  | 4.1 µM |  | > 100 | GI50 (BT-549 breast): 0.64 µM; GI50 (NCI/ADR-RES ovarian): > 100 µM |
| CC1(C)CC(O)CC(C)(C)N1.CC1(C)CC(O)CC(C)(C)N1.CC1(C)CC(O)CC(C)(C)N1.CC1(C)CC(O)CC(C)(C)N1.Cl.[Ti] | > 100 | > 100 µM | > 100 µM | > 100 | > 100 |  |  |  |  | GI50 (DLD-1 colon): > 100 µM; GI50 (DMS 114 small cell lung): > 100 µM; GI50 (DMS 273 small cell lung): > 100 µM; GI50 (HOP-18 NSCLC): > 100 µM; GI50 (KM20L2 colon): > 100 µM |
| Nc1c(C(=O)Nc2ccccc2O)[n+]([O-])c2ccccc2[n+]1[O-] | > 100 | 63.5 µM | > 100 µM | > 100 | > 100 |  |  |  |  |  |
| CCOC(=O)[C@@H]1C[C@@H]1c1ccc(O)c(O)c1 |  |  |  |  |  |  | 75.9 µM | 35.1 µM | > 100 |  |
| CCN(CC)CCS(=O)(=O)CCNc1ccnc2cc(Cl)ccc12 |  |  |  |  |  |  | 9.62 µM |  | 4.73 | GI50 (BT-549 breast): 2.94 µM; GI50 (NCI/ADR-RES ovarian): 1.12 µM |
| CC(C)=CC(=O)CC(=O)C(=O)NCCNC(=O)C(=O)CC(=O)C=C(C)C | > 50 | > 50 µM | > 50 µM | > 50 | > 50 | > 50 |  |  |  |  |
| O=C(Nc1ccc(Cl)c(Cl)c1)C1C(=O)N(c2ccc(Cl)c(Cl)c2)C(=O)/C1=N\O (stereo unspecified) | > 100 | 83.7 µM | > 100 µM | > 100 | > 100 |  |  |  |  |  |
| CC(C)CCCC(C)[C@H]1CCC2[C@@H]3CCC4Cc5nc6c(nc5C[C@]4(C)C3CC[C@@]21C)CC1CC[C@@H]2C(CC[C@@]3(C)C2CC[C@@H]3O)[C@@]1(C)C6 (stereo partly specified) |  |  |  |  |  |  | > 100 µM | > 100 µM | > 100 |  |
| Cc1cc(OC(=O)c2c(C)cc(OC(=O)c3c(C)cc(O)cc3O)cc2O)cc(O)c1C(=O)O | > 100 | > 100 µM | > 100 µM |  | > 100 | > 100 |  |  |  |  |
| CC1=C(C(=O)CC(=O)C(=O)Nc2ccccc2C)Sc2ccccc2N1 | > 67.9 |  | > 100 µM | > 100 | > 100 |  |  |  |  |  |
| O=c1c2ccccc2n2cnc3ccc(NCCNCCO)c1c32 | 16.9 | 12.2 µM |  | 26.8 | 12.1 |  | 16.6 µM | 9.61 µM | 16.5 |  |
